Assay results as given in patent publication US20180289840A1, “Method for Evaluating Hematological Toxicity of Drug Under Evaluation, and Model for Evaluating Hematological Toxicity of Drug Under Evaluation” (Central Institute for Experimental Animals, priority 2015, published 2018).
Read-outs that look alike come from different tables or passages of the source.

Columns and labels:
[1] = system: mouse CD45+ cells (granulocytes-based progenitor cells); assay: Colony forming test on granulocytes-based myelopoiesis progenitor cells, mouse CD45+ bone marrow cells of humanized Tg-NOG mouse; assay type: cell-based; conditions: cultured 8 days; for IC50: concentration at which formation of 50% of granulocyte-derived colonies is inhibited, read-out: IC50 (nM) mCD45+; for IC90: concentration at which formation of 90% of granulocyte-derived colonies is inhibited, read-out: IC90 (nM) mCD45+
From the text: (§1) The mouse at week 14 after the transplantation of the hCD34^+ cells derived from the human cord blood was euthanized by removing the blood from the abdominal aorta under anesthesia of isoflurane. Then, the femur was collected. The femur was sterilely washed using the Iscove's Modified Dulbecco's Medium (IMDM, available from Life Technologies) to prepare a suspension of cells. The suspension of cells was passed through a nylon filter (pore size of 35 μm, Cell Strainer, available from BD Biosciences) to obtain a filtrate as a solution of the bone marrow cells. A portion of the solution of the bone marrow cells was subjected to FACS analysis to calculate a ratio between the human-derived leucocytes (hCD45^+) and the mouse-derived leucocytes (mCD45^+).
The mouse CD45^+ cells were suspended in a methyl cellulose medium (available from MethoCult GF M3534, Stem cell technologies) so as to be 2×10^4 cells/1.1 mL/dish. Then, EHC (1.2 nM, 3.7 nM, 11 nM, 33 nM, 100 nM, or 300 nM) was added. Meanwhile, PTX (0.12 nM, 0.4 nM, 1.1 nM, 3.3 nM, 10 nM, 30 nM, or 90 nM) was added. The resultant was seeded in a dish and was cultured for 8 days at 37° C. under 5% CO2.
(§2) As the vehicle control, dimethyl sulfoxide (DMSO, final concentration of 0.002 v/v %) was used. For each concentration, two dishes were used.
(§3) After a period of the cultivation was completed, the number of the colonies derived from the granulocytes formed was counted and an average number of the colonies in each concentration was calculated. An average number of the colonies in the vehicle control was considered as 100%. The average number of the colonies in each concentration was considered as a relative value (IC50 and IC90). Here, the IC50 means a concentration at which formation of 50% of the colonies is inhibited and the IC90 means a concentration at which formation of 90% of the colonies is inhibited.
(§4) The collection, preparation, and cultivation of the bone marrow cells and the calculation of the percentage of inhibition of colony formation were performed in the same manner as in Example 3-1.
The mouse CD45^+ cells were exposed to nogitecan at an exposure concentration of 3.7 nM, 11.1 nM, 33.3 nM, 100 nM, 300 nM, or 900 nM. Meanwhile, the other mouse CD45^+ cells were exposed to oxaliplatin at an exposure concentration of 13.7 nM, 41.2 nM, 123 nM, 370 nM, or 1,111 nM.
(§5) A physiological saline solution was used for the vehicle control of nogitecan and a distilled water was used for the vehicle control of oxaliplatin.
(§6) An average number of the colonies in the vehicle control was considered as 100%. The average number of the colonies in each concentration was considered as a relative value (IC50 and IC90). Here, the IC50 means a concentration at which formation of 50% of the colonies is inhibited and the IC90 means a concentration at which formation of 90% of the colonies is inhibited.

[2] = system: human CD45+ cells (granulocytes-based progenitor cells); assay: Colony forming test on granulocytes-based myelopoiesis progenitor cells, human CD45+ bone marrow cells of humanized Tg-NOG mouse; assay type: cell-based; conditions: for influence on the granulocytes-based progenitor cells in the bone marrow, human vs mouse: colony forming test, comparison hCD45+ vs mCD45+; for IC50: concentration at which formation of 50% of granulocyte-derived colonies is inhibited, read-out: IC50 (nM) hCD45+; for IC50 / IC90: cultured 16 days; for IC90: concentration at which formation of 90% of granulocyte-derived colonies is inhibited, read-out: IC90 (nM) hCD45+
From the text: as §1
The human 45^+ cells were suspended in a methyl cellulose medium (MethoCult H4534, available from Stem cell technologies) so as to be 5×10^4 cells/1.1 mL/dish. Then, EHC was added at 0.14 nM, 0.4 nM, 1.2 nM, 3.7 nM, 11 nM, or 33 nM. Meanwhile, PTX was added at 0.12 nM, 0.4 nM, 1.1 nM, 3.3 nM, 10 nM, 30 nM, or 90 nM. The resultant was seeded in a dish and was cultured for 16 days at 37° C. under 5% CO2.
as §2, §3, §4
The human CD45^+ cells were exposed to nogitecan at an exposure concentration of 0.41 nM, 1.2 nM, 3.7 nM, 11.1 nM, 33.3 nM, or 100 nM. Meanwhile, the other human CD45^+ cells were exposed to oxaliplatin at an exposure concentration of 123 nM, 370 nM, 1,111 nM, 3,333 nM, 10,000 nM, or 30,000 nM.
as §5, §6

[3] = system: mouse-derived leucocytes (mCD45+) and mouse-derived granulocytes (mGr-1+); assay type: in vivo; conditions: oxaliplatin 20 mg/kg single intravenous
Method: (§7) Six-week-old Tg-NOG mice (24 females) were irradiated with X-rays of 2.5 Gy. After a period of from 3 hours to 4 hours, the CD34^+ cells derived from the human cord blood were transplanted at 40,000 cells/body. At 5 week after the transplantation, the peripheral blood was collected from the orbital sinus under anesthesia of isoflurane. Engraftment thereof in the peripheral blood was confirmed.
(§8) Eleven mice suitable for the evaluation were selected and divided into the control group (5 mice) and the oxaliplatin administration group (6 mice). The mice in the control group received a 5 w/v % glucose solution from the tail vein through single intravenous administration. Meanwhile, two mice of the 6 mice in the oxaliplatin administration group received oxaliplatin at 20 mg/kg (2 mg/mL, 10 mL/kg), another two mice in the oxaliplatin administration group received oxaliplatin at 30 mg/kg (3 mg/mL, 10 mL/kg), and the other two mice in the oxaliplatin administration group received oxaliplatin at 40 mg/kg (4 mg/mL, 10 mL/kg) from the tail vein through single intravenous administration. Regarding assignment of the animals, the animals were grouped so that an average value of the number of the human leucocytes and that of the number of the human granulocytes were almost the same.
(§9) The peripheral blood was collected from the orbital sinus under anesthesia of isoflurane at day 4, day 7, day 14, day 17, day 21, and day 28 after the administration. Then, the number of the leucocytes in the peripheral blood was measured with FACS. The animals administered at 30 mg/kg and the animals administered at 40 mg/kg died by day 7 after the administration.

[4] = system: human-derived leucocytes (hCD45+) and human-derived granulocytes (hCD66b+); assay type: in vivo; conditions: oxaliplatin 20 mg/kg single intravenous
Method: as §7, §8, §9

[5] = system: Tg-NOG mouse; assay: Survival and general condition of humanized Tg-NOG mice after single intravenous administration; assay type: in vivo
Method: as §7, §8, §9

[6] = Mus musculus, Bone marrow cell, 192 h
[7] = Homo sapiens, Bone marrow cell, 384 h

IC50 [1, 6] [nM] | IC90 [1, 6] [nM] | IC50 [2, 7] [nM] | IC90 [2, 7] [nM] | SMILES | IC50 [1] [nM] | IC90 [1] [nM] | influence on the granulocytes-based progenitor cells in the bone marrow, human vs mouse [2] | IC50 [2] [nM] | IC90 [2] [nM] | change of mouse-derived leucocytes (mCD45+) and mouse-derived granulocytes (mGr-1+) [3] | change of human leucocytes in peripheral blood [4] | day from which tendency of recovering of human-derived granulocytes was presented [4] [days] | change of human-derived granulocytes ([4]; day 4 after the administration) | difference between species: influence on the reduction in the leucocytes ([4]; human vs mouse leucocytes) | general condition of animals ([5]; oxaliplatin 20 mg/kg single intravenous, day 17 after the administration) | death of animals, day after the administration ([5]; oxaliplatin 30 mg/kg single intravenous) [days] | death of animals, day after the administration ([5]; oxaliplatin 40 mg/kg single intravenous) [days]
 |  |  |  | CCc1c2c(nc3ccc(O)cc13)-c1cc3c(c(=O)n1C2)COC(=O)[C@]3(O)CC [EHC, 7-Ethyl-10-hydroxycamptothecin] | 106 | 122 | higher in the human than in the mouse | 11.3 | 12.9 |  |  |  |  |  |  |  | 
142 | 305 | 8.7 | 24.3 | CC[C@@]1(O)C(=O)OCc2c1cc1n(c2=O)Cc2cc3c(CN(C)C)c(O)ccc3nc2-1 [Nogitecan, nogitecan] |  |  | higher in the human than in the mouse |  |  |  |  |  |  |  |  |  | 
 |  |  |  | O=C1[O][Pt]2([NH][C@@H]3CCCC[C@H]3[NH]2)[O]C1=O [Oxaliplatin, oxaliplatin] | 434 | 846 | higher in the mouse than in the human | 2770 | 4660 | considerably decreased | no considerable reduction | ≥ 7 | slightly decreased | more strongly developed in the human than in the mouse | moribund condition | ≤ 7 | ≤ 7
71.2 | 87.5 | 83.9 | 84.5 | CC(=O)O[C@H]1C(=O)[C@@]2(C)[C@H]([C@H](OC(=O)c3ccccc3)[C@]3(O)C[C@H](OC(=O)[C@H](O)[C@@H](NC(=O)c4ccccc4)c4ccccc4)C(C)=C1C3(C)C)[C@]1(OC(C)=O)CO[C@@H]1C[C@@H]2O [PTX, paclitaxel] |  |  | almost the same between the human and the mouse |  |  |  |  |  |  |  |  |  | 
